{"source": "patent US20210113501A1", "about": "“METHOD OF ADMINISTERING BETA-HYDROXY-BETA-METHYLBUTYRATE (HMB)” (Metabolic Technologies, Inc., priority 2009, published 2021)", "assay": "Study 1 blood chemistry", "type": "in vivo, human", "conditions": "for Gamma-glutamyl: in U/L (unit assumed)", "description": "Study 1 design. For study 1 the subjects reported to the laboratory in the morning following an overnight fast. Before ingestion of one of the supplemental treatments, a flexible sterile polyethylene catheter was inserted into a forearm vein using sterile procedures and a pre-ingestion blood sample was drawn. Subsequent blood samples were taken at 0, 2, 5, 10, 15, 25, 35, 45, 60, 90, 120 and 180 min after ingestion of the treatment. Plasma was separated and samples were stored frozen at −70° C. for analysis of HMB concentration. In addition, a portion of the pre-ingestion and 180 minute blood samples were used for measurements (LabCorp, Kansas City, Mo.) of glucose, uric acid, blood urea nitrogen (BUN), creatinine, sodium, potassium, chloride, carbon dioxide, phosphorous, protein, albumin, globulin, albumin:globulin ratio, total bilirubin, direct bilirubin, alkaline phosphatase, lactate dehydrogenase, aspartate aminotransferase (AST), alanine aminotransferase (ALT), gamma-glutamyl transpeptidase (GGT), iron binding capacity (TIBC), unsaturated iron binding capacity (UIBC), iron, iron saturation, total cholesterol, triglycerides, high density lipoprotein (HDL), low density lipoprotein (LDL), and cholesterol ratio. A complete blood count (CBC) was also performed before and after the 180 min treatment period. Subjects also completed a brief questionnaire to report any physical symptoms (such as nausea, headache, etc) they may have experienced during the experiment.\nThe data were analyzed using a crossover design with Proc GLM in SAS. (45) For the timed sampling of plasma HMB a repeated measures polynomial model was used. The model included subject, order, and treatment main effects and time by treatment interaction where appropriate. For other parameters Proc GLM was also used with subject, order, and treatment main effects and the p values are reported for the treatment main effect. Statistical significance was determined for p<0.05 and a trend was determined for 0.05<p<0.10."}
{"molecule": "CC(C)(O)CC(=O)[O-].CC(C)(O)CC(=O)[O-].[Ca+2]", "note": "[CaHMB, calcium β-hydroxy-β-methylbutryate, reference compound]", "values": [{"measurement": "A:G Ratio", "setting": "After (180 min)", "result": "1.7 ± 0.1"}, {"measurement": "Alanine Aminotransferase", "setting": "After (180 min)", "result": "15.6 ± 2.0", "unit": "IU/L"}, {"measurement": "Albumin", "setting": "After (180 min)", "result": "4.1 ± 0.1", "unit": "g/dL"}, {"measurement": "Alkaline Phosphatase", "setting": "After (180 min)", "result": "68.4 ± 8.4", "unit": "IU/L"}, {"measurement": "Aspartate Aminotransferase", "setting": "After (180 min)", "result": "22.4 ± 1.8", "unit": "IU/L"}, {"measurement": "Blood Urea Nitrogen", "setting": "After (180 min)", "result": "11.3 ± 0.9", "unit": "mg/dL"}, {"measurement": "CO2", "setting": "After (180 min)", "result": "24.8 ± 0.5", "unit": "mEq/L"}, {"measurement": "Chloride", "setting": "After (180 min)", "result": "103.1 ± 0.7", "unit": "mEq/L"}, {"measurement": "Cholesterol Ratio", "setting": "After (180 min)", "result": "3.0 ± 0.1"}, {"measurement": "Creatinine", "setting": "After (180 min)", "result": "0.9 ± 0.1", "unit": "mg/dL"}, {"measurement": "Direct Bilirubin", "setting": "After (180 min)", "result": "0.1 ± 0.01", "unit": "mg/dL"}, {"measurement": "Globulin", "setting": "After (180 min)", "result": "2.5 ± 0.2", "unit": "g/dL"}, {"measurement": "Glucose", "setting": "After (180 min)", "result": "76.4 ± 3.2", "unit": "mg/dL"}, {"measurement": "HDL", "setting": "After (180 min)", "result": "53.1 ± 3.8", "unit": "mg/dL"}, {"measurement": "Iron", "setting": "After (180 min)", "result": "93.0 ± 16.8", "unit": "µg/dL"}, {"measurement": "Iron Binding Capacity", "setting": "After (180 min)", "result": "342.8 ± 35.9", "unit": "µg/dL"}, {"measurement": "Iron Saturation", "setting": "After (180 min)", "result": "31.1 ± 8.9", "unit": "%"}, {"measurement": "LDL", "setting": "After (180 min)", "result": "86.5 ± 5.7", "unit": "mg/dL"}, {"measurement": "Lactate Dehydrogenase", "setting": "After (180 min)", "result": "165.6 ± 10.7", "unit": "IU/L"}, {"measurement": "Phosphorus", "setting": "After (180 min)", "result": "3.5 ± 0.3", "unit": "mg/dL"}, {"measurement": "Potassium", "setting": "After (180 min)", "result": "4.7 ± 0.2", "unit": "mEq/L"}, {"measurement": "Protein", "setting": "After (180 min)", "result": "6.5 ± 0.3", "unit": "g/dL"}, {"measurement": "Sodium", "setting": "After (180 min)", "result": "139.4 ± 0.8", "unit": "mEq/L"}, {"measurement": "Total Bilirubin", "setting": "After (180 min)", "result": "0.5 ± 0.08", "unit": "mg/dL"}, {"measurement": "Total Cholesterol", "setting": "After (180 min)", "result": "153.9 ± 9.7", "unit": "mg/dL"}, {"measurement": "Triglycerides", "setting": "After (180 min)", "result": "71.6 ± 11.2", "unit": "mg/dL"}, {"measurement": "UIBC", "setting": "After (180 min)", "result": "249.8 ± 47.7", "unit": "µg/dL"}, {"measurement": "Uric Acid", "setting": "After (180 min)", "result": "4.5 ± 0.4", "unit": "mg/dL"}, {"measurement": "Gamma-glutamyl", "setting": "After (180 min)", "result": "13.1 ± 0.9"}, {"measurement": "A:G Ratio", "setting": "Before", "result": "1.8 ± 0.1"}, {"measurement": "Alanine Aminotransferase", "setting": "Before", "result": "14.1 ± 1.5", "unit": "IU/L"}, {"measurement": "Albumin", "setting": "Before", "result": "4.0 ± 0.1", "unit": "g/dL"}, {"measurement": "Alkaline Phosphatase", "setting": "Before", "result": "66.5 ± 6.5", "unit": "IU/L"}, {"measurement": "Aspartate Aminotransferase", "setting": "Before", "result": "21.4 ± 1.5", "unit": "IU/L"}, {"measurement": "Blood Urea Nitrogen", "setting": "Before", "result": "12.1 ± 1.0", "unit": "mg/dL"}, {"measurement": "CO2", "setting": "Before", "result": "23.4 ± 0.6", "unit": "mEq/L"}, {"measurement": "Chloride", "setting": "Before", "result": "103.3 ± 0.6", "unit": "mEq/L"}, {"measurement": "Cholesterol Ratio", "setting": "Before", "result": "3.0 ± 0.1"}, {"measurement": "Creatinine", "setting": "Before", "result": "0.9 ± 0.1", "unit": "mg/dL"}, {"measurement": "Direct Bilirubin", "setting": "Before", "result": "0.1 ± 0.02", "unit": "mg/dL"}, {"measurement": "Globulin", "setting": "Before", "result": "2.3 ± 0.2", "unit": "g/dL"}, {"measurement": "Glucose", "setting": "Before", "result": "72.6 ± 1.6", "unit": "mg/dL"}, {"measurement": "HDL", "setting": "Before", "result": "51.3 ± 3.2", "unit": "mg/dL"}, {"measurement": "Iron", "setting": "Before", "result": "83.3 ± 16.7", "unit": "µg/dL"}, {"measurement": "Iron Binding Capacity", "setting": "Before", "result": "330.4 ± 32.9", "unit": "µg/dL"}, {"measurement": "Iron Saturation", "setting": "Before", "result": "29.9 ± 9.5", "unit": "%"}, {"measurement": "LDL", "setting": "Before", "result": "86.1 ± 5.3", "unit": "mg/dL"}, {"measurement": "Lactate Dehydrogenase", "setting": "Before", "result": "160.9 ± 9.5", "unit": "IU/L"}, {"measurement": "Phosphorus", "setting": "Before", "result": "3.9 ± 0.2", "unit": "mg/dL"}, {"measurement": "Potassium", "setting": "Before", "result": "4.1 ± 0.1", "unit": "mEq/L"}, {"measurement": "Protein", "setting": "Before", "result": "6.3 ± 0.2", "unit": "g/dL"}, {"measurement": "Sodium", "setting": "Before", "result": "139.1 ± 0.5", "unit": "mEq/L"}, {"measurement": "Total Bilirubin", "setting": "Before", "result": "0.5 ± 0.07", "unit": "mg/dL"}, {"measurement": "Total Cholesterol", "setting": "Before", "result": "153.4 ± 9.1", "unit": "mg/dL"}, {"measurement": "Triglycerides", "setting": "Before", "result": "80.4 ± 11.6", "unit": "mg/dL"}, {"measurement": "UIBC", "setting": "Before", "result": "247.1 ± 45.0", "unit": "µg/dL"}, {"measurement": "Uric Acid", "setting": "Before", "result": "4.5 ± 0.3", "unit": "mg/dL"}, {"measurement": "A:G Ratio % Change", "setting": "Before to After", "result": "−8.9", "unit": "%"}, {"measurement": "Alanine Aminotransferase % Change", "setting": "Before to After", "result": 10.6, "unit": "%"}, {"measurement": "Albumin % Change", "setting": "Before to After", "result": 0.3, "unit": "%"}, {"measurement": "Alkaline Phosphatase % Change", "setting": "Before to After", "result": 2.8, "unit": "%"}, {"measurement": "Aspartate Aminotransferase % Change", "setting": "Before to After", "result": 4.7, "unit": "%"}, {"measurement": "Blood Urea Nitrogen % Change", "setting": "Before to After", "result": "−7.2", "unit": "%"}, {"measurement": "CO2 % Change", "setting": "Before to After", "result": 5.9, "unit": "%"}, {"measurement": "Chloride % Change", "setting": "Before to After", "result": "−0.1", "unit": "%"}, {"measurement": "Cholesterol Ratio % Change", "setting": "Before to After", "result": "−2.5", "unit": "%"}, {"measurement": "Creatinine % Change", "setting": "Before to After", "result": 0.5, "unit": "%"}, {"measurement": "Direct Bilirubin % Change", "setting": "Before to After", "result": 5.8, "unit": "%"}, {"measurement": "Gamma-glutamyl % Change", "setting": "Before to After", "result": "−4.5", "unit": "%"}, {"measurement": "Globulin % Change", "setting": "Before to After", "result": 8.2, "unit": "%"}, {"measurement": "Glucose % Change", "setting": "Before to After", "result": 5.2, "unit": "%"}, {"measurement": "HDL % Change", "setting": "Before to After", "result": 3.7, "unit": "%"}, {"measurement": "Iron % Change", "setting": "Before to After", "result": 11.7, "unit": "%"}, {"measurement": "Iron Binding Capacity % Change", "setting": "Before to After", "result": 3.7, "unit": "%"}, {"measurement": "Iron Saturation % Change", "setting": "Before to After", "result": 4.2, "unit": "%"}, {"measurement": "LDL % Change", "setting": "Before to After", "result": 0.4, "unit": "%"}, {"measurement": "Lactate Dehydrogenase % Change", "setting": "Before to After", "result": 3.0, "unit": "%"}, {"measurement": "Phosphorus % Change", "setting": "Before to After", "result": "−10.8", "unit": "%"}, {"measurement": "Potassium % Change", "setting": "Before to After", "result": 13.4, "unit": "%"}, {"measurement": "Protein % Change", "setting": "Before to After", "result": 3.2, "unit": "%"}, {"measurement": "Sodium % Change", "setting": "Before to After", "result": 0.2, "unit": "%"}, {"measurement": "Total Bilirubin % Change", "setting": "Before to After", "result": 7.9, "unit": "%"}, {"measurement": "Total Cholesterol % Change", "setting": "Before to After", "result": 0.3, "unit": "%"}, {"measurement": "Triglycerides % Change", "setting": "Before to After", "result": "−10.9", "unit": "%"}, {"measurement": "UIBC % Change", "setting": "Before to After", "result": 1.1, "unit": "%"}, {"measurement": "Uric Acid % Change", "setting": "Before to After", "result": "−1.4", "unit": "%"}, {"measurement": "Gamma-glutamyl", "setting": "Before", "result": "13.8 ± 0.9"}]}
